Reference: US20240175863A1, “COMPOSITIONS AND METHODS FOR MONITORING ENPP1 ACTIVITY” (The Regents of University of Californa, priority 2021, published 2024)
Like-named read-outs stand apart in the source and are kept apart here.

Tests used:
cardiac fibroblasts [1] = test: myocyte conditioned medium transferred to cardiac fibroblasts, cell death (substance added to cardiomyocytes); format: cell-based, mouse; details: for cardiac fibroblast cell death by conditioned medium of cardiomyocytes treated with AMP plus inhibitor: inhibitor added to cardiomyocytes at the time of addition of AMP; for cardiac fibroblast cell death by conditioned medium of cardiomyocytes treated with the substance alone: conditioned medium collected after 24 hours
[2] = system: C57BL/6 animals subjected to ischemic cardiac injury
[3] = system: gamma H2A.X and p53Ser15 phosphorylation in non-myocyte cells; test: immunostaining of DNA damage response in non-myocyte cells of injured hearts; format: in vivo, mouse; details: hearts of myricetin treated animals
ENPP1 = target: T1, ENPP1 (UniProt P22413); test: cell free luciferase based luminescent assay for ENPP1 inhibitors; format: biochemical
T1 sequence (P22413 1-925): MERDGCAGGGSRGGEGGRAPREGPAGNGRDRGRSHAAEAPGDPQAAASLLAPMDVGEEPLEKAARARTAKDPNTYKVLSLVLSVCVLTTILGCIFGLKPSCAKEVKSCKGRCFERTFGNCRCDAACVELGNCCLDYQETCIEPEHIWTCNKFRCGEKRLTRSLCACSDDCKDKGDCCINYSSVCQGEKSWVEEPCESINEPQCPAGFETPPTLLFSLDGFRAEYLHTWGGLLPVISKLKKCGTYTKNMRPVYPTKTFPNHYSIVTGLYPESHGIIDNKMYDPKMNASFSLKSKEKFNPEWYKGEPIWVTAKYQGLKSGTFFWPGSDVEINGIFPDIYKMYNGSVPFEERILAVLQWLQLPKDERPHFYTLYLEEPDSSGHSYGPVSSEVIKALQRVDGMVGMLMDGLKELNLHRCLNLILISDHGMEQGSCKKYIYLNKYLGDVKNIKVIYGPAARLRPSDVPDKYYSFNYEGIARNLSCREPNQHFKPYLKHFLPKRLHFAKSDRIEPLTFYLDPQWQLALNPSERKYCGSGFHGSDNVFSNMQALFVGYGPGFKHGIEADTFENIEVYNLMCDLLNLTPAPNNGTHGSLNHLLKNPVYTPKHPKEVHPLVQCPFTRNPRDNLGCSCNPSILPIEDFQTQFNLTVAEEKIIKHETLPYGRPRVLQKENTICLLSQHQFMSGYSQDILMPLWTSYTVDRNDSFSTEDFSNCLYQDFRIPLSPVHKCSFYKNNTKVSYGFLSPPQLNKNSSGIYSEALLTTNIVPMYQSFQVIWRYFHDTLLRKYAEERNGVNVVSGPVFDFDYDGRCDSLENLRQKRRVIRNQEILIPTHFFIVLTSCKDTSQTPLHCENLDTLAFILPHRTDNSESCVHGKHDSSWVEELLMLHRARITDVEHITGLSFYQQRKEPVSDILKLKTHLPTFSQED

[4] = system: ENPP1 over-expressing cardiac fibroblasts; test: co-culture of ENPP1 over-expressing cardiac fibroblasts with rodent ventricular cardiomyocytes plus ATP; format: cell-based, mouse
pyrimidine biosynthesis = test: metabolomic analysis of hearts and serum after cardiac injury; format: in vivo, mouse
cardiac fibroblasts [5] = test: rescue of cardiac fibroblast cell death induced by ENPP1+ATP myocyte conditioned medium (substance added to fibroblasts); format: cell-based, mouse; details: for cell death of cardiac fibroblasts treated with ENPP1+ATP myocyte conditioned medium in presence of the substance: substance added to cardiac fibroblasts
Text: Unable to readily identity the pro-apoptotic metabolites, the studies sought alternative physiologic principles of approaching the problem. The data has consistently shown that the ENPP1+ATP myocyte conditioned medium caused death of a wide range of non-myocyte cells, but that myocytes themselves are not affected. This could be possibly secondary to a specific receptor that is present in non-myocytes and not in myocytes. However, as non-myocyte cells of different lineages are affected, it was hypothesized that the ability of myocytes to be immune to the conditioned medium likely reflects an inherent cellular property of myocytes that distinguishes itself from that in non-myocyte cells tested by us. As non-myocytes are proliferative and myocytes are non-proliferative, it was hypothesized that the ability to cycle was making the non-myocytes susceptible to the metabolites secreted by the myocyte. To determine whether this was true, the studies harvested primary cardiac fibroblasts and induced cell cycle arrest of freshly harvested cardiac fibroblasts by irradiating them.
It also provided an obvious explanation as to why non-proliferative myocytes are immune to the effects of the metabolite(s). A nucleotide balance between the content of purines and pyrimidines available to cycling cells is critical to avoid genotoxic stress and maintain genomic stability. It was hypothesized that disruption of the nucleotide biosynthetic pathways in non-myocyte cells and an imbalance of purine versus pyrimidine nucleotides was inducing genotoxic stress and initiating a DNA damage response in proliferating non-myocytes. The studies treated cardiac fibroblasts with ENPP1+ATP myocyte conditioned medium for 24 hours and measured the content of nucleoside monophosphate and nucleoside triphosphates in treated cardiac fibroblasts by LC/MS-MS. […] To determine whether this is true, the studies attempted to rescue cell death of cardiac fibroblasts by adding uridine or deoxycytidine to the ENPP1+ATP myocyte conditioned medium. Cardiac fibroblasts were treated with the ENPP1+ATP myocyte conditioned medium but uridine or deoxycytidine or both were added to the cardiac fibroblasts at the time of addition of ENPP1+ATP myocyte conditioned medium (FIG. 5C). […] Deoxycytidine serves as a precursor of dCTP synthesis via the enzyme deoxycytidine kinase.
Pyrimidine biosynthesis occurs via a sequence of well-regulated steps (FIG. 5H), where carbamoyl phosphate is converted to carbamoyl aspartate and then to dihydroorotate. Dihydroorotate dehydrogenase (DHODH) then converts dihydroorotate to the pyrimidine orotate. In the presence of phosphoribosyl pyrophosphate (PRPP), orotate is converted by phosphoribosyl transferase activity of UMP synthase to orotidine monophosphate (OMP) and then decarboxylated by OMP decarboxylase activity of UMP synthase to uridine monophosphate (UMP). To determine which steps in pyrimidine biosynthesis are affected in cycling non-myocytes, the studies treated cardiac fibroblasts with ENPP1+ATP myocyte conditioned medium and 24 hours later harvested the cells and subjected the cardiac fibroblasts to mass spectrometry to determine metabolites in the pyrimidine biosynthesis pathway. […] As orotate levels were increased but orotidine levels decreased in cardiac fibroblasts treated with ENPP1+ATP myocyte conditioned medium, it was hypothesized that inhibition was occurring at the OMP synthesis step from orotate and PRPP (orotate phosphoribosyl transferase). […]

cardiac fibroblasts [6] = test: direct treatment of cardiac fibroblasts with metabolites or inhibitors, cell death and rescue; format: cell-based, mouse
[7] = system: primary mouse embryonic fibroblasts (mEF); test: mouse embryonic fibroblasts treated with ENPP1+ATP myocyte conditioned medium, cell death; format: cell-based
[8] = 30 mg/kg myricetin intra-peritoneally daily for 14 days
[9] = 30 mg/kg myricetin intra-peritoneally daily for 14 days, day 7 after injury, n=15
[10] = myricetin versus vehicle treated injured hearts
[11] = myricetin versus vehicle, day 3
[12] = uridine continuous infusion for 14 days
[13] = uridine continuous infusion for 14 days, day 7 after injury, mean±S.E.M., n=15

Nc1ncnc2c1ncn2[C@@H]1O[C@H](COP(=O)(O)CP(=O)(O)O)[C@@H](O)[C@H]1O [AMP-CP]
cardiac fibroblast cell death by conditioned medium of cardiomyocytes treated with AMP plus inhibitor (cardiac fibroblasts [1]): significantly increases cardiac fibroblast cell death

O=c1c(O)c(-c2cc(O)c(O)c(O)c2)oc2cc(O)cc(O)c12 [myricetin]
fraction of animals with severe fibrosis (>40% of the LV surface area) [2, 8]: 15% | fraction of animals with severe heart failure (EF<20%) [2, 8]: 23% | LVIDs (ventricular chamber size) [2, 9]: 3.68±0.23 | ejection fraction [2, 9]: 38.04±3.74% | fractional shortening [2, 9]: 18.67±2.05% | body weight ([2]; mouse, in vivo): without any change | capillary density ([2]; myricetin, versus vehicle): significant increase | ventricular hypertrophy ([2]; myricetin, versus vehicle): decreased | area of scarring at the mid ventricular and apical regions ([2]; myricetin, 4 weeks post injury, versus vehicle): significantly reduced | p53Ser15 phosphorylation in non-myocyte cells [3]: attenuated | expression of gamma H2A.X in non-myocyte cells ([3]; 7 days following injury): attenuated expression | inhibition of ENPP1 enzymatic activity (ENPP1): ~99% | cell death of cardiac fibroblasts in co-culture after addition of ATP ([4]; concomitant addition of myricetin (10 uM)): significantly attenuated cell death | cardiac fibroblast cell death with conditioned medium of cardiomyocytes treated with ENPP1+ATP plus substance, versus ENPP1+ATP conditioned medium (cardiac fibroblasts [1]): significant reduction in cell death | carbamoyl aspartate in the hearts (pyrimidine biosynthesis; myricetin versus vehicle injected animals (FIG. 8K legend)): decreased | carbamoyl phosphate levels in the injured regions of the heart (pyrimidine biosynthesis; [10]): decrease | level of cytidine in the injured regions of the heart (pyrimidine biosynthesis; [10]): significant increase | level of uridine in the injured regions of the heart (pyrimidine biosynthesis; [10]): significant increase | deoxyuridine in serum (pyrimidine biosynthesis; [11]): increased | orotate in serum (pyrimidine biosynthesis; [11]): decrease | orotidine in serum (pyrimidine biosynthesis; myricetin versus vehicle, day 7): increased

COc1ccc(-c2nc([C@@H](C)Sc3nc(N)cc(N)n3)c(C)s2)cc1OCCN1CCOCC1 [DI-87]
rescue by deoxycytidine of ENPP1+ATP conditioned medium induced cell death in presence of deoxycytidine kinase inhibitor (cardiac fibroblasts [5]): unable to prevent cell death

Nc1ncnc2nc[nH]c12 [adenine, Adenine]
cell death of cardiac fibroblasts after removal of the compound from the set of 7 compounds (cardiac fibroblasts [6]): no cell death | cell death of cardiac fibroblasts treated directly with the substance(s) (cardiac fibroblasts [6]): no cell death was observed

O=C(O)c1cc(=O)[nH]c(=O)n1[C@@H]1O[C@H](COP(=O)(O)O)[C@@H](O)[C@H]1O [OMP, orotidine monophosphate]
cell death of cardiac fibroblasts treated with adenine and adenosine plus the substance (cardiac fibroblasts [6]): rescue of cell death | cell death of cardiac fibroblasts treated with ENPP1+ATP myocyte conditioned medium in presence of the substance (cardiac fibroblasts [5]): completely rescued cell death

O=c1ccn([C@@H]2O[C@H](CO)[C@@H](O)[C@H]2O)c(=O)[nH]1 [uridine, Uridine]
cell death of cardiac fibroblasts treated with adenine and adenosine plus the substance (cardiac fibroblasts [6]): rescue of cell death | cell death of cardiac fibroblasts treated with brequinar plus uridine (cardiac fibroblasts [6]): rescue | cell death of cardiac fibroblasts treated with the 7 compounds together with uridine (cardiac fibroblasts [6]): cell death was prevented | animals with severe post infarct fibrosis (>40% of LV surface area) [2, 12]: none | fraction of animals with severe depression in EF (less than 20%) [2, 12]: 13% | end systolic ventricular diameters ([2]; uridine continuous infusion for 14 days, versus vehicle): trend towards better preservation | ejection fraction (EF) [2, 13]: 37.02±3.12% | fractional shortening (FS) [2, 13]: 18.01±1.68% | heart weight/body weight ratios ([2]; uridine, versus vehicle): decreased | capillary density ([2]; uridine, 4 weeks following injury): significantly increased | fibrosis measured at the apex and mid ventricle ([2]; uridine, 4 weeks post injury, versus vehicle): decreased fibrosis | cell death of cardiac fibroblasts treated with ENPP1+ATP myocyte conditioned medium in presence of the substance (cardiac fibroblasts [5]): completely rescued cell death

Nc1ncnc2c1ncn2[C@@H]1O[C@H](COP(=O)(O)OP(=O)(O)OP(=O)(O)O)[C@@H](O)[C@H]1O [ATP]
reduction in the number of ENPP1 over-expressing cardiac fibroblasts ([4]; ATP added to co-culture with neonatal rat ventricular cardiomyocytes, within 48 hours): 75%

Nc1ncnc2c1ncn2[C@@H]1O[C@H](CO)[C@@H](O)[C@H]1O [adenosine, Adenosine]
cardiac fibroblast cell death by conditioned medium of cardiomyocytes treated with the substance alone (cardiac fibroblasts [1]): unable to induce cell death

C[C@H](Nc1cc(Cl)nc2c1cnn2[C@@H]1O[C@H](COP(=O)(O)CP(=O)(O)O)[C@@H](O)[C@H]1O)c1ccccc1F [AB680]
cardiac fibroblast cell death by conditioned medium of cardiomyocytes treated with AMP plus inhibitor (cardiac fibroblasts [1]): significantly increases cardiac fibroblast cell death

Nc1ncnc2c1ncn2[C@@H]1O[C@H](COP(=O)(O)O)[C@@H](O)[C@H]1O [AMP, Adenosine monophosphate]
cell death of cardiac fibroblasts treated directly with the substance(s) (cardiac fibroblasts [6]): did not induce cell death | cardiac fibroblast cell death by conditioned medium of cardiomyocytes treated with the substance alone (cardiac fibroblasts [1]): caused cell death

CO[C@@]12[C@H](COC(N)=O)C3=C(C(=O)C(C)=C(N)C3=O)N1C[C@@H]1N[C@@H]12 [mitomycin C]
cell death of mEF treated with ENPP1+ATP myocyte conditioned medium after cell cycle arrest [7]: prevented cell death | cell death of cardiac fibroblasts treated with ENPP1+ATP myocyte conditioned medium in presence of the substance (cardiac fibroblasts [5]): resistant to cell death

Nc1ccn([C@H]2C[C@H](O)[C@@H](CO)O2)c(=O)n1 [deoxycytidine]
cell death of cardiac fibroblasts treated with ENPP1+ATP myocyte conditioned medium in presence of the substance (cardiac fibroblasts [5]): completely rescued cell death

O=P(O)(O)OP(=O)(O)O [PPi, pyrophosphate]
cardiac fibroblast cell death by conditioned medium of cardiomyocytes treated with the substance alone (cardiac fibroblasts [1]): not

Cc1c(-c2ccc(-c3ccccc3F)cc2)nc2ccc(F)cc2c1C(=O)O [brequinar]
cell death of cardiac fibroblasts treated directly with the substance(s) (cardiac fibroblasts [6]): cardiac fibroblast cell death

Nc1ncnc2nc(-c3ccc(N4CCOCC4)nc3)cc(-c3cccc(Br)c3)c12 [ABT-702]
cardiac fibroblast cell death by conditioned medium of cardiomyocytes treated with AMP plus inhibitor (cardiac fibroblasts [1]): attenuated cell death

CCNC(=O)[C@H]1O[C@@H](n2cnc3c(N)ncnc32)[C@H](O)[C@@H]1O [NECA]
cardiac fibroblast cell death by conditioned medium of cardiomyocytes treated with the substance alone (cardiac fibroblasts [1]): did not cause fibroblast cell death
